Experimental findings from patent publication US20240336642A1 (The General Hospital Corporation, priority 2021, published 2024) are described below.

The term IC50 denotes the concentration at which inhibition is half-maximal. Low values mean greater potency in that assay, high ones weaker potency in that assay.

The experiment deals with h12/15-LOX (Homo sapiens (Human), UniProt P16050). As to the kind of experiment: 12/15-LOX enzyme inhibition IC50 assay (Examples 1 and 2). The format is biochemical. The conditions noted are these: for Emax: h12/15-LOX, read-out: Max % inhibition. Here is the method:
Enzyme was then added to the cuvettes. […] The % inhibition for each test compound concentration were calculated as follows: […]

Where a name gives a salt, the structure may show the parent alone.

Chain of h12/15-LOX (P16050 whole entry): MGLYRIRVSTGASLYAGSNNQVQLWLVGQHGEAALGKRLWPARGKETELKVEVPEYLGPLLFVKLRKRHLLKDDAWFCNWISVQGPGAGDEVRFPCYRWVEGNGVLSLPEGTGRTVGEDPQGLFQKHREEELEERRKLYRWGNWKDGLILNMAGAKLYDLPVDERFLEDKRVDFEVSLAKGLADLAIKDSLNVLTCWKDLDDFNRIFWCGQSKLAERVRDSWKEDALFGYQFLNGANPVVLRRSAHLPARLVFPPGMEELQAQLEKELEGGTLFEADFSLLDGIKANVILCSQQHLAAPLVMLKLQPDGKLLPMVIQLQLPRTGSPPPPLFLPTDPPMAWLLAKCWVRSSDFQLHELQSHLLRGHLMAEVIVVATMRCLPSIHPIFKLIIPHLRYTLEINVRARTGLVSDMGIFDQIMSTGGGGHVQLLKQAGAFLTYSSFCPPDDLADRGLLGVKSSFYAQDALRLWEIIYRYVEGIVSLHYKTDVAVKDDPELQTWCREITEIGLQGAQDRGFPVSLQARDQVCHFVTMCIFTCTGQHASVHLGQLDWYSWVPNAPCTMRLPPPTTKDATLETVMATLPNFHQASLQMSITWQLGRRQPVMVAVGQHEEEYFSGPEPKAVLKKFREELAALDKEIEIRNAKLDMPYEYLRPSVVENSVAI

For `N#Cc1nc(-c2cc(Cl)cc(C(F)(F)F)c2Cl)oc1NCCOCCO` [Compound 31, 2-(2,5-Dichloro-3-(trifluoromethyl)phenyl)-5-((2-(2-hydroxyethoxy)ethyl)amino)oxazole-4-carbonitrile], the half-maximal inhibitory concentration (IC50) is 2400 nM and the Emax is 99%.

`N#Cc1nc(-c2cc(Cl)cc(Cl)c2Cl)oc1NCCOCCN1CCC(F)(F)C1` [Compound 92, 5-((2-(2-(3,3-Difluoropyrrolidin-1-yl)ethoxy)ethyl)amino)-2-(2,3,5-trichlorophenyl)oxazole-4-carbonitrile]: the IC50 was found to be 8800 nM and the Emax was determined as 86%. As for `CN(C)CCCCCC(=O)Nc1oc(-c2cc(Cl)cc(Cl)c2Cl)nc1C#N` [Compound 63, N-(4-cyano-2-(2,3,5-trichlorophenyl)oxazol-5-yl)-6-(dimethylamino) hexanamide hydrochloride], the IC50 is more than 20000 nM. Turning to `[2H]C([2H])([2H])N(C(=O)OCCCN(C)C)c1oc(-c2cc(Cl)cc(Cl)c2Cl)nc1C#N` [Compound 54, hydrochloride], the IC50 is more than 20000 nM. In the case of `COCCOc1ccc(COCC#CCNc2oc(-c3cc(Cl)cc(Cl)c3Cl)nc2C#N)cc1` [Compound 85], the Emax came to 92%. For `N#Cc1nc(-c2cc(Cl)cc(Cl)c2F)oc1NCCCCCO` [Compound 25], the Emax was 38%. Consider `N#Cc1nc(-c2cc(Cl)cc(Cl)c2Cl)oc1NCCOCCN1CCCC(F)(F)C1` [Compound 75, 5-((2-(2-(3,3-Difluoropiperidin-1-yl)ethoxy)ethyl)amino)-2-(2,3,5-trichlorophenyl)oxazole-4-carbonitrile], for which the half-inhibitory concentration (IC50) amounted to 1100 nM and the Emax stood at 61%. `CN(C(=O)CC1CCNCC1)c1oc(-c2cc(Cl)cc(Cl)c2Cl)nc1C#N` [Compound 53] displayed an IC50 of more than 20000 nM. Take `CNc1oc(-c2cc(Cl)cc(Cl)c2C)nc1C#N` [Compound 2, 2-(3,5-Dichloro-2-methylphenyl)-5-(methylamino)oxazole-4-carbonitrile]: the concentration for half-maximal inhibition (IC50) was found to be 63 nM and the Emax came to 85%.

`COCCOCCOC(=O)N(C)c1oc(-c2cc(Cl)cc(Cl)c2Cl)nc1C#N` [Compound 56, 2-(2-Methoxyethoxy)ethyl (4-cyano-2-(2,3,5-trichlorophenyl)oxazol-5-yl)(methyl)carbamate] yielded an IC50 of more than 20000 nM. Take `N#Cc1nc(-c2cc(Cl)cc(Cl)c2Cl)oc1NCCOCCOc1cccnn1` [Compound 79, 5-((2-(2-(Pyridazin-3-yloxy)ethoxy)ethyl)amino)-2-(2,3,5-trichlorophenyl)oxazole-4-carbonitrile]: the IC50 was more than 20000 nM and the Emax came out at 17%.

For `N#Cc1nc(-c2cc(Cl)cc(Cl)c2Cl)oc1NCC#CCOCc1ccncc1` [Compound 88, 5-((4-(Pyridin-4-ylmethoxy)but-2-yn-1-yl)amino)-2-(2,3,5-trichlorophenyl)oxazole-4-carbonitrile], the IC50 came out at 81 nM and the Emax turned out to be 74%. As to `N#Cc1nc(-c2cc(Cl)cc(Cl)c2Cl)oc1NCCOCCOc1cccnc1` [Compound 76, 5-((2-(2-(Pyridin-3-yloxy)ethoxy)ethyl)amino)-2-(2,3,5-trichlorophenyl)oxazole-4-carbonitrile], 250 nM corresponded to half-maximal inhibition (IC50) and the Emax was 74%.

Consider `CN(C)CCCCC(=O)Nc1oc(-c2cc(Cl)cc(Cl)c2Cl)nc1C#N` [Compound 64, N-(4-Cyano-2-(2,3,5-trichlorophenyl)oxazol-5-yl)-5-(dimethylamino)pentanamide hydrochloride], for which the half-maximal inhibitory concentration (IC50) is more than 20000 nM. For `CNc1oc(-c2cc(Cl)cc(Cl)c2OC)nc1C#N` [Compound 5, 2-(3,5-Dichloro-2-methoxyphenyl)-5-(methylamino)oxazole-4-carbonitrile], the IC50 worked out at 180 nM and the Emax was 92%. Regarding `Cc1c(Cl)cc(Cl)cc1-c1nc(C#N)c(NCCCCCO)o1` [Compound 24, 2-(3,5-Dichloro-2-methylphenyl)-5-((5-hydroxypentyl)amino)oxazole-4-carbonitrile], the IC50 is 320 nM and the Emax turned out to be 80%.

As for `Cc1c(Cl)cc(Cl)cc1-c1nc(C#N)c(NCCCCO)o1` [Compound 19, 2-(3,5-Dichloro-2-methylpheny1)-5-((4-hydroxybutyl)amino)oxazole-4-carbonitrile], the 50% inhibitory concentration (IC50) was determined as 460 nM and the Emax is 68%. Turning to `CN(C)CCOC(=O)Nc1oc(-c2cc(Cl)cc(Cl)c2Cl)nc1C#N` [Compound 59, 2-(Dimethylamino)ethyl (4-cyano-2-(2,3,5-trichlorophenyl)oxazol-5-yl)carbamate hydrochloride], the 50% inhibitory concentration (IC50) was more than 20000 nM. With `COCCNc1oc(-c2cc(Cl)cc(Cl)c2C)nc1C#N` [Compound 41, 2-(3,5-Dichloro-2-methylphenyl)-5-((2-methoxyethyl)amino)oxazole-4-carbonitrile], the IC50 was found to be 170 nM and the Emax was 89%.

Turning to `N#Cc1nc(-c2cc(Cl)cc(Cl)c2Cl)oc1NCCOCCOc1ccncc1F` [Compound 84, 5-((2-(2-((3-Fluoropyridin-4-yl)oxy)ethoxy)ethyl)amino)-2-(2,3,5-trichlorophenyl)oxazole-4-carbonitrile], it took 490 nM to reach half-maximal inhibition (IC50) and the Emax turned out to be 68%. As to `CNc1oc(-c2cc(Cl)cc(Cl)c2OC(F)F)nc1C#N` [Compound 4], the Emax came out at 67%. Turning to `COCCNc1oc(-c2cc(Cl)cc(C(F)(F)F)c2Cl)nc1C#N` [Compound 42, 2-(2,5-Dichloro-3-(trifluoromethyl)phenyl)-5-((2-methoxyethyl)amino)oxazole-4-carbonitrile], the IC50 is 350 nM and the Emax turned out to be 75%. The matching figures for `Cc1cc(Cl)c(Cl)c(-c2nc(C#N)c(NCCCCO)o2)c1` [Compound 21, 2-(2,3-Dichloro-5-methylphenyl)-5-((4-hydroxybutyl)amino)oxazole-4-carbonitrile]: 8000 nM and 86%.

For the compound `N#Cc1nc(-c2cc(Cl)cc(Cl)c2Cl)oc1NCCOCCNCCF` [Compound 93], the Emax worked out at 98%.

Take `N#Cc1nc(-c2cc(Cl)cc(Cl)c2Cl)oc1NCCOCCOc1ccnc(F)c1` [Compound 102, 5-((2-(2-((2-Fluoropyridin-4-yl)oxy)ethoxy)ethyl)amino)-2-(2,3,5-trichlorophenyl)oxazole-4-carbonitrile]: it took 110 nM to reach half-maximal inhibition (IC50) and the Emax was found to be 86%.

In the case of `C/C=C/CNc1oc(-c2cc(Cl)cc(Cl)c2Cl)nc1C#N` [Compound 15, (E)-5-(But-2-en-1-ylamino)-2-(2,3,5-trichlorophenyl)oxazole-4-carbonitrile], the IC50 worked out at 170 nM and the Emax turned out to be 92%. In the case of `N#Cc1nc(-c2cc(Cl)cc(Cl)c2Cl)oc1NCCOCCOc1ccnnc1` [Compound 103, 5-((2-(2-(Pyridazin-4-yloxy)ethoxy)ethyl)amino)-2-(2,3,5-trichlorophenyl)oxazole-4-carbonitrile], half-maximal inhibition (IC50) required 4600 nM and the Emax was 73%. Turning to `CNc1oc(-c2cc(Cl)cc(OC)c2Cl)nc1C#N` [Compound 9], the Emax was 71%. For `CCOCCOCCNc1oc(-c2cc(Cl)cc(Cl)c2Cl)nc1C#N` [Compound 69, 5-((2-(2-Ethoxyethoxy)ethyl)amino)-2-(2,3,5-trichlorophenyl)oxazole-4-carbonitrile], it took 330 nM to reach half-maximal inhibition (IC50) and the Emax came out at 100%. As for `N#Cc1nc(-c2cc(Cl)cc(Cl)c2Cl)oc1NCCOCCN1CCC(F)(F)CC1` [Compound 98, 5-((2-(2-(4,4-Difluoropiperidin-1-yl)ethoxy)ethyl)amino)-2-(2,3,5-trichlorophenyl)oxazole-4-carbonitrile], the IC50 turned out to be 3100 nM and the Emax is 79%. The matching figures for `CNc1oc(-c2cc(F)cc(Cl)c2Cl)nc1C#N` [Compound 11, 2-(2,3-Dichloro-5-fluorophenyl)-5-(methylamino)oxazole-4-carbonitrile]: 870 nM and 93%.

For `CN(CCF)CCOCCNc1oc(-c2cc(Cl)cc(Cl)c2Cl)nc1C#N` [Compound 96, 5-((2-(2-((2-Fluoroethyl)(methyl)amino)ethoxy)ethyl)amino)-2-(2,3,5-trichlorophenyl)oxazole-4-carbonitrile], the IC50 turned out to be 4400 nM and the Emax came to 93%. As to `N#Cc1nc(-c2cc(Cl)cc(Cl)c2OC(F)F)oc1NCCOCCO` [Compound 29, 2-(3,5-Dichloro-2-(difluoromethoxy)phenyl)-5-((2-(2-hydroxyethoxy)ethyl)amino)oxazole-4-carbonitrile], it took 3000 nM to reach half-maximal inhibition (IC50) and the Emax was 100%. Turning to `Cc1cc(Cl)cc(-c2nc(C#N)c(NCCCCCO)o2)c1Cl` [Compound 26, 2-(2,5-Dichloro-3-methylphenyl)-5-((5-hydroxypentyl)amino)oxazole-4-carbonitrile], half-maximal inhibition (IC50) was put at 800 nM and the Emax is 100%. Take `N#Cc1nc(-c2cc(Cl)cc(Cl)c2OC(F)F)oc1NCCCCO` [Compound 18, 2-(3,5-Dichloro-2-(difluoromethoxy)phenyl)-5-((4-hydroxybutyl)amino)oxazole-4-carbonitrile]: the IC50 amounted to 2000 nM and the Emax was 90%. In the case of `N#Cc1nc(-c2cc(Cl)cc(C(F)(F)F)c2Cl)oc1NCCCCCO` [Compound 27, 2-(2,5-Dichloro-3-(trifluoromethyl)phenyl)-5-((5-hydroxypentyl)amino)oxazole-4-carbonitrile], it took 550 nM to reach half-maximal inhibition (IC50) and the Emax was 70%. Regarding `CNc1oc(-c2cc(C#N)cc(Cl)c2Cl)nc1C#N` [Compound 13, 2-(2,3-Dichloro-5-cyanophenyl)-5-(methylamino)oxazole-4-carbonitrile], the 50% inhibitory concentration (IC50) is 1100 nM and the Emax was found to be 100%. Consider `CNc1oc(-c2ccc(Cl)c(Cl)c2Cl)nc1C#N`, for which the IC50 was more than 20000 nM and the Emax was determined as 49%. `CN(C)CCCCCC(=O)N(C)c1oc(-c2cc(Cl)cc(Cl)c2Cl)nc1C#N` [Compound 61, N-(4-cyano-2-(2,3,5-trichlorophenyl)oxazol-5-yl)-6-(dimethylamino)-N-methylhexanamide hydrochloride]: the IC50 was more than 20000 nM.
